Reference: patent US20050047997A1, “Method for the evaluation of the efficiency of a therapeutic action upon the human organism” (priority 1997, published 2005)

Key:
Type in all cases: in vivo, human
arterial pressure = assay: Arterial pressure monitoring in hypertension patients; settings: monitored every other day
Experimental: (§1) Selected hypertension patients are divided into two groups. The reference group includes 48 patients and the experimental group includes 56 patients. Each group consists of 60% of females, the rest being males. All the patients in the same group differ in age by not more than 1 year. The patients from the experimental group are treated with a hypotensive medication belonging to calcium current blocking agents—Corinfar, (see […], lines from 1 to 3), while those from the reference group are treated with a medication that blocks angiotensin-transforming enzyme (ATE) Prestarium (see FIG. 3, lines from 4 to 6). The period from the beginning of the relapse till the inclusion of the patient into the experiment is chosen to be 2 days. The phase of the disease is selected to be hypertension of medium exacerbation. The prevailing disease localization is its cerebral variant, in other words, the variant characterized by prevailing damage of cerebral vessels. The initial level of the homeostasis characteristics is set by the characteristic of electrolytic homeostasis, i.e. the sodium level, and is equal to 140 mmol/l for both groups. The patients' arterial pressure was monitored every other day, which corresponded to the period of time that is characterized by a significant decrease in arterial pressure under the effect of ATE blocking agent. […]

[1] = Electrolytic homeostasis (sodium level) in treated hypertension patients; settings: initial level 140 mmol/l
Experimental: as §1

ulcerous defect = assay: Ulcer healing (cicatrization of ulcerous defect) in ulcer patients; settings: compared with the other group
Experimental: As a result, each group consists of patients of the same sex or features the same proportion of males and females who differ in age by not more than one year. […] Thus, patients with the stomach ulcer are ranked by the ulcerous defect localization with the accuracy of 1/9th of the stomach sections: cardia, subcardia, upper, middle and lower thirds of the stomach body, angle, anthral and prepyloric sections, pylorus. The initial surface area of the ulcerous defect is measured. Then the current stage (phase) of the disease: acute stage (the stage of ulcer forming), stationary stage or “plateau” and the stage of reparation proper (see FIG. 4) is determined for each patient on the basis of clinical, laboratory and instrumental indications. These phases characterize the period of time that passed since the beginning of relapse (exacerbation or start) of the disease till the patient was included into the clinical experiment. […]
The quantitative number of patients in groups must provide the statistical reliability of the results. In the given example the group treated with a reference medical preparation consisted of 73 patients, while the group treated with the medical preparation that had to be evaluated consisted of 81 patients. […] The control time is determined for the selected groups of ulcer patients. […]

[2] = Homeostasis (lipid metabolism) indicators in treated ulcer patients
Experimental: As a result, each group consists of patients of the same sex or features the same proportion of males and females who differ in age by not more than one year. […] Thus, patients with the stomach ulcer are ranked by the ulcerous defect localization with the accuracy of 1/9th of the stomach sections: cardia, subcardia, upper, middle and lower thirds of the stomach body, angle, anthral and prepyloric sections, pylorus. The initial surface area of the ulcerous defect is measured. Then the current stage (phase) of the disease: acute stage (the stage of ulcer forming), stationary stage or “plateau” and the stage of reparation proper (see FIG. 4) is determined for each patient on the basis of clinical, laboratory and instrumental indications. These phases characterize the period of time that passed since the beginning of relapse (exacerbation or start) of the disease till the patient was included into the clinical experiment. The method in question uses homeostasis indications, particularly those related to lipid metabolism, for the evaluation of the efficiency of the therapeutic action. Based on the above principle, the patients are divided into subgroups according to the following classification: • cholesterol (CS); • high density lipoproteins (HDLP); • low density lipoproteins (LDLP); • very low density lipoproteins (VLDLP); • triglycerides (TG); • atherogenicity factor (AF).
The quantitative number of patients in groups must provide the statistical reliability of the results. In the given example the group treated with a reference medical preparation consisted of 73 patients, while the group treated with the medical preparation that had to be evaluated consisted of 81 patients. The reference group was treated with a medication belonging to proton pump blocking agent (for example, Zerocid), while the experimental group was treated with a medication belonging to antacids (for example, Maalox). If the studied medications are only to be ranked by the efficiency of their action upon the organism rather than compared with each other, placebo can be used as a reference medication. The control time is determined for the selected groups of ulcer patients. The control is performed individually for each ranked experimental group. […]
The initial efficiency criterion was a complete healing of ulcerous defect combined with the dynamics of the change in homeostasis characteristics. The individual temporal norm was represented by a time interval calculated on the basis of individual characteristics of the ulcer healing process that corresponded to the individual characteristics of the homeostasis indications, for instance, to the characteristics of lipid metabolism calculated by the known formulas. […]

level of sodium after treatment [1]	Compound	arterial pressure change as a result of treatment (arterial pressure)	cicatrization of ulcerous defects (ulcerous defect)	effect upon the atherogenesis and oncogenesis judged from lipid spectrum indications [2]	HDLP indicators ([2]; FIG. 2a, lines 1-16)	atherogenicity factor (AF) ([2]; during treatment)	level of triglycerides (TG) ([2]; during treatment)
146000 µM	COC(=O)C1=C(C)NC(C)=C(C(=O)OC)C1c1ccccc1[N+](=O)[O-] [Corinfar]	decreased by comparable values	–	–	–	–	–
137000 µM	CCC[C@H](N[C@@H](C)C(=O)N1[C@H](C(=O)O)C[C@@H]2CCCC[C@@H]21)C(=O)OCC [Prestarium]	decreased by comparable values	–	–	–	–	–
–	COc1ccc2[nH]c([S+]([O-])Cc3ncc(C)c(OC)c3C)nc2c1 (stereo not drawn) [Zerocid]	–	faster	clearly negative effect	decreasing	increasing	increasing
